Data: publication PMC9709425, “The inhibition of NCS-1 binding to Ric8a rescues fragile X syndrome mice model phenotypes” (Frontiers in Neuroscience, 2022)

What was measured:
[1] = test system: Fmr1 KO2 mice; test: Self-grooming (stereotype) in Fmr1 KO2 mice; format: in vivo, mouse; conditions: 10 mg/kg IP daily for 4 weeks
Method: (§1) FD44 solution formulation in 5% NMP, 5% Solutol HS-15, 30% PEG-400, and 60% citric acid (10 mM) was administered in doses of 10 and 50 mg/kg dose intraperitoneally and orally, respectively. A single dose was administered to 8–12-month-old mice for PK and a daily intraperitoneal dose to 2-month-old mice for 4 weeks for further behavioral and biochemical studies. […] PK was performed in collaboration with Sai life Science Ltd. Blood samples were collected from retro-orbital plexus into ethylenediamine tetraacetic acid (EDTA) tubes from a set of three mice at each time point. Plasma was immediately harvested from the blood by centrifugation at 2,500 g for 10 min at 4°C. […] Concentrations of FD44 in mouse plasma and brain samples were determined by the fit-for-purpose liquid chromatography with tandem mass spectrometry (LC-MS/MS) method. PK parameters were calculated using the non-compartmental analysis tool of Phoenix WinNonlin® (Version 7.0). Areas under the concentration time curve (AUClast and AUCinf) were calculated using a linear trapezoidal rule.
(§2) Stereotype was evaluated by self-grooming. For this, mice were placed individually in a cage, after a 5-min habituation period, the time spent to grooming any part of the body was recorded for 3 min. […] The latency between attacks was measured for 3 min.

[2] = parameters: method as in Mansilla et al., 2017; conditions: among compounds previously identified as NCS-1/Ric8a inhibitors; ref Mansilla et al., 2017; cited from earlier work
[3] = test system: Fmr1 KO2 mice; test: Aggression test (latency between attacks) in Fmr1 KO2 mice; format: in vivo, mouse; conditions: 10 mg/kg IP daily for 4 weeks
Method: as §1, §2

[4] = test system: Fmr1 KO, Fmr1 KO2, and WT mice; test: Tolerability on treatment of mice; format: in vivo; conditions: 10 mg/kg IP / 50 mg/kg PO
Method: (§3) FD44 solution formulation in 5% NMP, 5% Solutol HS-15, 30% PEG-400, and 60% citric acid (10 mM) was administered in doses of 10 and 50 mg/kg dose intraperitoneally and orally, respectively. A single dose was administered to 8–12-month-old mice for PK and a daily intraperitoneal dose to 2-month-old mice for 4 weeks for further behavioral and biochemical studies. […] PK was performed in collaboration with Sai life Science Ltd. Blood samples were collected from retro-orbital plexus into ethylenediamine tetraacetic acid (EDTA) tubes from a set of three mice at each time point. Plasma was immediately harvested from the blood by centrifugation at 2,500 g for 10 min at 4°C. Immediately after collection of blood, brain samples were collected and homogenized using ice-cold phosphate buffer saline. Concentrations of FD44 in mouse plasma and brain samples were determined by the fit-for-purpose liquid chromatography with tandem mass spectrometry (LC-MS/MS) method. PK parameters were calculated using the non-compartmental analysis tool of Phoenix WinNonlin® (Version 7.0). Areas under the concentration time curve (AUClast and AUCinf) were calculated using a linear trapezoidal rule.

[5] = test system: Fmr1 KO mice; test: Open field test (hyperactivity) in Fmr1 KO mice; format: in vivo, mouse; conditions: 10 mg/kg IP for 4 weeks
Method: as §1
(§4) Tests were conducted at the end of the treatment, that is, 4th week, and mice were tested on one behavioral task a day. […] Activity was monitored by IR beam breaks and decoded using VersaDat software (AccuScan). […] The distance traveled for 30 min was measured in centimeter for all cases.

[6] = test system: D. melanogaster FMRP mutants; conditions: Drosophila melanogaster FXS model (FMRP mutants or fmr1 RNAi strain), FD44 in the food; ref Mansilla et al., 2017; cited from earlier work
[7] = test system: Fmr1 KO2 mice; test: Open field test (hyperactivity) in Fmr1 KO2 mice; format: in vivo, mouse; conditions: 10 mg/kg IP daily for 4 weeks
Method: as §1, §4

[8] = test system: NCS-1/Ric8a complex; parameters: method as in Mansilla et al., 2017; conditions: cell lysate; ref Mansilla et al., 2017; cited from earlier work
[9] = test system: Fmr1 KO2 mice; test: Fear conditioning (associative learning) in Fmr1 KO2 mice; format: in vivo, mouse; conditions: 10 mg/kg IP daily for 4 weeks
Method: as §3
Associative learning of an aversive sound followed by an electrical shock was used to analyze fear conditioning. […] Memory was tested 24 h after training, and freezing time was recorded for 5 min.

[10] = test system: Fmr1 KO mice; test: Three-chamber social test in Fmr1 KO mice; format: in vivo, mouse; conditions: 10 mg/kg IP for 4 weeks
Method: as §3
The three-chamber test assesses cognition in the form of interest in social novelty. Testing occurs in a three-chambered box with openings between the chambers. […] The time spent in each chamber is quantified for 6 min.

[11] = test system: D2R; parameters: method as in Mansilla et al., 2017; conditions: ref Mansilla et al., 2017; cited from earlier work
[12] = Pharmacokinetic profile, plasma and brain, single dose in BALB/c WT mice; format: in vivo; conditions: mouse
Method: The pharmacokinetic (PK) assay was performed by Sai Life Sciences Ltd. in BALB/c WT mice aged 8–12-months.
as §3

[13] = test system: neuronal cultures; parameters: method as in Mansilla et al., 2017; conditions: ref Mansilla et al., 2017; cited from earlier work
[14] = test system: DA metabolism; test: DA levels and DA metabolic profile (HPLC) in brain areas of Fmr1 KO mice; format: in vivo, mouse; conditions: FD44 IP for 4 weeks
Method: as §1, with “rule. […]” for “rule.”
Tissue samples were preserved at −80°C until analysis. […] DA and its metabolites were measured from supernatants by HPLC with an ESA Coulochem detector, according to Mena et al. ([1993]). […] Monoamine levels were identified by their retention time, and amounts were calculated against calibrated external standard solutions. […]

[15] = test system: D1R; parameters: method as in Mansilla et al., 2017; conditions: ref Mansilla et al., 2017; cited from earlier work
[16] = target: T1, NCS-1/Ric8a complex (Homo sapiens, UniProt P62166); test: In situ proximity ligation assay (PLA) of NCS-1 binding to Ric8a in HEK293 cells; format: cell-based; conditions: FD44 20 μM
T1 construct: expressed in transfected cells; host or cells: HEK293
T1 sequence (P62166 2-190 limits assumed, one chain of several): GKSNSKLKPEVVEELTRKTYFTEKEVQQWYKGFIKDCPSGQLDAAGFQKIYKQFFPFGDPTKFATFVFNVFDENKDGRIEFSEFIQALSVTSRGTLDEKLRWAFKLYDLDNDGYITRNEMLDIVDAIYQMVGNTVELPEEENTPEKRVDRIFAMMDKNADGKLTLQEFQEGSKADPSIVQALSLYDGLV
Method: Human embryonic kidney HEK293 cells were grown in Dulbecco's modified Eagle's medium supplemented with 2 mM L-glutamine, 100 U/ml penicillin/streptomycin, MEM non-essential amino acid solution (1/100), and 5% (v/v), and heat-inactivated fetal bovine serum (all from Thermo). The human NCS-1 and Ric8a-V5 constructs were previously generated (Mansilla et al., [2017]). Plasmids were co-transfected onto HEK293 using Lipofectamin 2000 (Thermo) following the manufacturer's instructions. Approximately 20 μM of FD44 diluted in dimethyl sulfoxide (DMSO) or the same volume of DMSO was added to culture cells 24 h after transfection.
For the in situ proximity ligation assay (PLA), cells were grown in coverslips and, after transfection and treatment, fixed for 20 min with a fixation reagent, and later permeabilized with a permeabilization reagent, all from the Intracellular Fixation and Permeabilization buffer set (eBioscience, Thermo). […] Finally, interactions were detected with Duolink in Situ PLA Green Detection kit (Sigma) following the manufacturer's instructions. Cover slips were mounted with ProLong reagent (Thermo) containing Hoescht, and staining was analyzed with a standard fluorescence microscope.
To better quantify the interaction, PLA was performed followed by flow cytometry. […] Cells were analyzed on FACS Canto II (BD Bioscience) with BD FACS Diva software.

## O=C(CN1CCCCC1)NN1c2ccccc2Sc2ccccc21 [FD44]
[1]
  stereotype, self-grooming: restored
[2]
  solubility profile: best solubility profile
[3]
  aggression, latency between attacks: low level of aggressiveness similar to their WT counterparts
[4]
  tolerability, clinical signs: well tolerated
[5]
  hyperactivity, distance traveled in the open field: normalizes
[6]
  associative learning: restored
  synapse number: restored
[7]
  hyperactivity, distance traveled in the open field: complete recovery
[8]
  inhibitory effect in a binding assay in vitro (co-immunoprecipitation): almost total inhibitory effect
[9]
  associative learning, freezing response after fear conditioning: completely rescued impaired associative learning
[10]
  social interest, time in chamber with unfamiliar vs familiar mouse (three-chamber test): able to restore the impaired social interest
[11]
  interaction with dopamine receptor D2R: does not interact
[12]; IP, 10 mg/kg single dose, brain
  Cmax: 2560.16 ng/mL
[12]; IP, 10 mg/kg single dose, brain, 10 mg/kg
  Tmax: 15 min
[12]; IP, 10 mg/kg single dose
  Brain-to-plasma ratio: 2.48–7.65
  time up to which brain concentrations were quantifiable: up to 480 min
  time up to which plasma concentrations were quantifiable: up to 480 min
[12]; IP, 10 mg/kg single dose, plasma
  Cmax: 981.19 ng/mL
[12]; IP, 10 mg/kg single dose, plasma, 10 mg/kg
  Tmax: 5 min
[12]; PO, 50 mg/kg single dose, brain
  Cmax: 5164.38 ng/mL
[12]; PO, 50 mg/kg single dose, brain, 50 mg/kg
  Tmax: 15 min
[12]; PO, 50 mg/kg single dose
  Brain-to-plasma ratio: 2.90 to 6.81
  time up to which brain concentrations were quantifiable: up to 480 min
  time up to which plasma concentrations were quantifiable: up to 480 min
[12]; PO, 50 mg/kg single dose, plasma
  Cmax: 858.90 ng/mL
[12]; PO, 50 mg/kg single dose, plasma, 50 mg/kg
  Tmax: 15 min
[12]; IP and PO PK study
  blood–brain barrier crossing: perfectly crosses the blood–brain barrier
[13]
  toxicity in neuronal cultures: low toxicity
[14]
  DA metabolism ratio (metabolites HVA + DOPAC/DA) increase in the limbic area: reversed
[15]
  interaction with dopamine receptor D1R: does not interact
[16]; HEK293 co-transfected with NCS-1 and Ric8a-V5, 24 h
  intensity and number of green fluorescence spots representing the NCS-1/Ric8a binding (PLA, microscopy): reduced
[16]; HEK293 co-transfected with human NCS-1 and Ric8a-V5, last 24 h, four independent experiments
  reduction in binding (PLA followed by flow cytometry, mean fluorescence intensity): 40%
